PMC5874716, “Antimicrobial Peptides for Topical Treatment of Osteomyelitis and Implant-Related Infections: Study in the Spongy Bone” (Pharmaceuticals, 2018)
Counter-ions that a name gives are not always drawn. Non-standard residues stand in square brackets, D forms with d. Residues, ends and D or L forms follow the SMILES beside them. No end group written: not given here. βAla = NCCC(=O)O

Key:
[1] = tested on: MRSA clinical isolate from Liberec Regional Hospital (MRSA (L)); assay: microbe, parasite or virus in culture; format: cell-based; conditions: clinical isolate Liberec, Bioscreen C, at least three times in duplicates
Experimental: (§1) Femur heads (ca. 70 pieces) taken from patients during hip replacement surgery were periodically purchased in the period between 2014–2017 as discarded from the bone tissue bank at University Hospital in Motol, Prague, Czech Republic. The reason for the replacements by artificial prosthesis was the worn out cartilage on the surface of their heads. Bone samples were stored at −80 °C under standard conditions of certified tissue banks. In the laboratory, they were kept at +5 °C overnight and then at room temperature for several hours before they could be used for the experiments. The experiments with this material were approved by the Ethics Committee for Multi-Centric Clinical Trials of the University Hospital Motol, Reference No: EK-655/15. Methicillin-resistant S. aureus (MRSA 6271) ATCC 43300 and P. aeruginosa (5482) ATCC 27853 were purchased from the Czech National Collection of Type Cultures, National Institute of Public Health, Prague, Czech Republic. Methicillin-resistant S. aureus (MRSA (L)) and P. aeruginosa (L) were obtained as multi-resistant clinical isolates from Liberec Regional Hospital, Liberec, Czech Republic. Methicillin-resistant S. aureus (MRSA (M)), E. faecalis and S. epidermidis were obtained as clinical isolates from University Hospital in Motol, Prague. Candida albicans (F7-39/IDE99) came from the mycological collection of the Faculty of Medicine, Palacky University, Olomouc, Czech Republic. C. albicans ATCC MYA-2876, C. tropicalis ATCC 750 and C. glabrata DSY565 were kindly provided by Dr. Hana Sychrová from the Institute of Physiology, Academy of Sciences of the Czech Republic, Prague. Vancomycin hydrochloride, gentamicin sulfate, ceftriaxone disodium salt, amphotericin B, fluconazole, and clotrimazole were obtained from Sigma-Aldrich, Prague, Czech Republic.
(§2) MIC values for peptides were established by observing growth of treated bacteria in HONEYCOMB 100-well microtiter plates (Helsinki, Finland) using a Bioscreen C instrument (Oy Growth Curves, Helsinki, Finland) as previously described. Haemolytic activity of peptides expressed as the concentration of a peptide required for lysis of 50% of human erythrocytes in the assay (LC50) was measured using a Tecan infinite M200 PRO reader (Tecan Austria GmbH, Grödig, Austria). Blood samples for determining haemolytic activity were obtained from healthy volunteers.

[2] = tested on: P. aeruginosa (5482) ATCC 27853; assay: microbe, parasite or virus in culture; format: cell-based; conditions: Bioscreen C, at least three times in duplicates
Experimental: as §1, §2

MRSA 6271 (ATCC 43300) = assay: microbe, parasite or virus in culture; format: cell-based; conditions: growth in 100-well microtiter plates, Bioscreen C, tested at least three times in duplicates
Experimental: as §1, §2

[3] = tested on: E. faecalis clinical isolate (Motol); assay: microbe, parasite or virus in culture; format: cell-based; conditions: clinical isolate Motol, Bioscreen C, at least three times in duplicates
Experimental: as §1, §2

[4] = tested on: MRSA clinical isolate from University Hospital in Motol (MRSA (M)); assay: microbe, parasite or virus in culture; format: cell-based; conditions: clinical isolate Motol, Bioscreen C, at least three times in duplicates
Experimental: as §1, §2

[5] = tested on: P. aeruginosa clinical isolate from Liberec Regional Hospital; assay: microbe, parasite or virus in culture; format: cell-based; conditions: clinical isolate Liberec, Bioscreen C, at least three times in duplicates
Experimental: as §1, §2

[6] = tested on: S. epidermidis clinical isolate (Motol); assay: microbe, parasite or virus in culture; format: cell-based; conditions: clinical isolate Motol, Bioscreen C, at least three times in duplicates
Experimental: as §1, §2

human erythrocytes = assay: Haemolysis assay; format: cell-based; conditions: concentration causing lysis of 50% of human red blood cells; at least three times in duplicates
Experimental: as §2

Candida albicans = format: cell-based; conditions: Bioscreen C; at least three times in duplicates
Experimental: as §1, §2

laboratory rats = conditions: infected femurs of laboratory rats treated locally; cited from earlier work
From the text: Another issue might be the toxicity of these peptides when applied locally to the bone tissue of laboratory animals or humans. […] None of these animals died.

MIC ([1]; Staphylococcus aureus, MRSA, read-out: Antimicrobial Activity MIC, MRSA a) | MIC ([2]; Pseudomonas aeruginosa, ATCC27853, read-out: Antimicrobial Activity MIC, P. a. 5482) | MIC (MRSA 6271 (ATCC 43300); Staphylococcus aureus, read-out: Antimicrobial Activity MIC, MRSA 6271) | MIC ([3]; Enterococcus faecalis, read-out: Antimicrobial Activity MIC, E. f. b) | MIC ([4]; Staphylococcus aureus, MRSA, read-out: Antimicrobial Activity MIC, MRSA b) | MIC ([5]; Pseudomonas aeruginosa, read-out: Antimicrobial Activity MIC, P. a. a) | MIC ([6]; Staphylococcus epidermidis, read-out: Antimicrobial Activity MIC, S. e. b) | Compound | Antimicrobial Activity MIC, MRSA a [1] | Antimicrobial Activity MIC, P. a. 5482 [2] | Antimicrobial Activity MIC, MRSA 6271 (MRSA 6271 (ATCC 43300)) | Antimicrobial Activity MIC, E. f. b [3] | Antimicrobial Activity MIC, MRSA b [4] | Antimicrobial Activity MIC, P. a. a [5] | Antimicrobial Activity MIC, S. e. b [6] | Haemolytic Activity LC50 (human erythrocytes) | Antimicrobial Activity MIC, C. a. (Candida albicans) | animals died (laboratory rats) | signs of local or systemic toxicity (laboratory rats)
3.9 µM | 2 µM | 325 µM | 95.2 µM | 4.5 µM | > 220 µM | 109 µM | CNC(C)C1CCC(N)C(OC2C(N)CC(N)C(OC3OCC(C)(O)C(NC)C3O)C2O)O1 (stereo not drawn) [Gentamicin, gentamicin sulfate, reference compound] |  |  |  |  |  |  |  |  |  |  | 
 |  |  |  |  |  |  | CC[C@@H](C)[C@@H](NC(=O)[C@@H](CCCCN)NC(=O)[C@@H](CCCCN)NC(=O)[C@@H](CC(C)C)NC(=O)[C@@H](CC(C)C)NC(=O)[C@@H](CCCCN)NC(=O)[C@@H](CCSC)NC(=O)[C@@H](Cc1c[nH]c2ccccc12)NC(=O)[C@@H](CCCCN)NC(=O)CN)C(=O)N[C@H](CC(C)C)C(=O)N[C@H](CCCCN)C(N)=O [II] (H-G[dK][dW][dM][dK][dL][dL][dK][dK][dI][dL][dK]-NH2; N-terminus assumed) | 5.3 µM | 4.5 µM | 11.3 µM | 12.7 µM | 9.7 µM | 12.5 µM | 2.0 µM | >400 µM | 5.7 µM |  | 
 |  |  |  |  |  |  | CC[C@@H](C)[C@@H](NC(=O)[C@@H](CCCCN)NC(=O)[C@@H](CCCCN)NC(=O)[C@@H](CC(C)C)NC(=O)[C@@H](CC(C)C)NC(=O)[C@@H](CCCCN)NC(=O)[C@H](NC(=O)[C@@H](Cc1c[nH]c2ccccc12)NC(=O)[C@@H](CCCCN)NC(=O)CN)C(C)C)C(=O)N[C@H](CC(C)C)C(=O)N[C@H](CCCCN)C(N)=O [VII] (H-G[dK][dW][dV][dK][dL][dL][dK][dK][dI][dL][dK]-NH2; N-terminus assumed) | 15.0 µM | 4.5 µM | 22.0 µM | 25.3 µM | 22.0 µM | 25.3 µM | 4.2 µM | >400 µM | 12.5 µM |  | 
 |  |  |  |  |  |  | CC[C@@H](C)[C@@H](NC(=O)[C@@H](CCCCN)NC(=O)[C@@H](CCCCN)NC(=O)[C@@H](CC(C)C)NC(=O)[C@@H](CC(C)C)NC(=O)[C@@H](CCCCN)NC(=O)[C@@H](CCSC)NC(=O)[C@@H](Cc1c[nH]c2ccccc12)NC(=O)[C@@H](CCCCN)NC(=O)CCN)C(=O)N[C@H](CC(C)C)C(=O)N[C@H](CCCCN)C(N)=O [XII] (H-[βAla][dK][dW][dM][dK][dL][dL][dK][dK][dI][dL][dK]-NH2; N-terminus assumed) | 8.0 µM | 3.2 µM | 16.0 µM | 32.0 µM | 16.0 µM | 8.0 µM | 2.5 µM | >400 µM | 5.3 µM |  | 
 |  |  |  |  |  |  | CC[C@@H](C)[C@@H](NC(=O)[C@@H](CCCCN)NC(=O)[C@@H](CCCCN)NC(=O)[C@@H](CC(C)C)NC(=O)[C@@H](CC(C)C)NC(=O)[C@@H](CCCCN)NC(=O)[C@@H](CCSC)NC(=O)[C@@H](Cc1c[nH]c2ccccc12)NC(=O)[C@H](N)CCCCN)C(=O)N[C@H](CC(C)C)C(=O)N[C@H](CCCCN)C(N)=O [X] (H-[dK][dW][dM][dK][dL][dL][dK][dK][dI][dL][dK]-NH2; N-terminus assumed) | 14.0 µM | 4.5 µM | 19.3 µM | 36 µM | 14.0 µM | 18.0 µM | 3.5 µM | >400 µM | 11.3 µM |  | 
 |  |  |  |  |  |  | GKWKKLLKKILK-NH2 [III] | 11.5 µM | 2.9 µM | 29.7 µM | >100 µM | 25.3 µM | 9.5 µM | 4.7 µM | >400 µM | 9.5 µM |  | 
 |  |  |  |  |  |  | GKWLKLLKKILK-NH2 [V] | 8.0 µM | 4.0 µM | 10.0 µM | 50.7 µM | 10.0 µM | 10.7 µM | 2.2 µM | 196 µM | 16.0 µM |  | 
 |  |  |  |  |  |  | GKWMKLLKKILK-NH2 [I] | 3.6 µM | 2.8 µM | 6.3 µM | 13.3 µM | 5.7 µM | 10.0 µM | 2.3 µM | 339 µM | 5.7 µM | None | did not notice any signs of local or systemic toxicity
 |  |  |  |  |  |  | GKWMKMLKKILK-NH2 [IV] | 10.0 µM | 5.3 µM | 20.0 µM | >100 µM | 20.0 µM | 12.7 µM | 3.2 µM | >200 µM | 12.7 µM |  | 
 |  |  |  |  |  |  | GKWVKLLKKILK-NH2 [VI] | 5.0 µM | 3.0 µM | 9.0 µM | >100 µM | 10.0 µM | 12.7 µM | 2.5 µM | >400 µM | 6.3 µM |  | 
 |  |  |  |  |  |  | KWMKLLKKILK-NH2 [IX] | 8.0 µM | 2.9 µM | 13.5 µM | >100 µM | 17.7 µM | 5.8 µM | 3.2 µM | >400 µM | 9.5 µM |  | 
